ChEMBL document CHEMBL1201862, “PubChem BioAssay data set” (2004)
Several values for one entry are separate records, joined by “and”; a condition that tells them apart may be missing. Equal values may be shown once.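 Method: 48-hour compound exposure of cells in 96-well plates, five concentrations, linear interpolation of endpoints. GI50: concentration for 50% inhibition of growth.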 Activity calls are given as the source filed them. No stated cut-off is given here; in the data, active = GI50 up to about 1.1 µM and inactive = higher.

Experiments:
Test in all cases: inhibition of tumour cell growth, NCI panel, 48 h
786-0 = system: 786-0
ACHN = system: ACHN
BT-549 = system: BT-549
HL-60 = system: HL-60
K562 = system: K562
KM12 = system: KM12
MCF7 = system: MCF7
MDA-MB-435 = system: MDA-MB-435
MDA-N = system: MDA-N
NCI-H460 = system: NCI-H460
NCI/ADR-RES = system: NCI/ADR-RES
OVCAR-3 = system: OVCAR-3
OVCAR-5 = system: OVCAR-5
SF-295 = system: SF-295
SK-MEL-28 = system: SK-MEL-28
SK-MEL-5 = system: SK-MEL-5
SN12C = system: SN12C
UO-31 = system: UO-31
HOP-92 = system: HOP-92
OVCAR-4 = system: OVCAR-4

Row | SMILES | GI50 (786-0) | GI50 (ACHN) | GI50 (BT-549) | GI50 (HL-60) | GI50 (K562) | GI50 (KM12) | GI50 (MCF7) | GI50 (MDA-MB-435) | GI50 (MDA-N) | GI50 (NCI-H460) | GI50 (NCI/ADR-RES) | GI50 (OVCAR-3) | GI50 (OVCAR-5) | GI50 (SF-295) | GI50 (SK-MEL-28) | GI50 (SK-MEL-5) | GI50 (SN12C) | GI50 (UO-31) | GI50 (HOP-92) | GI50 (OVCAR-4)
1 | O=C(C[C@@H]1CCCN2CCCC[C@H]12)N1c2ccccc2Sc2ccc(Cl)cc21 | 11.1 µM (inactive) | 14.2 µM (inactive) | 14.7 µM (inactive) | 14.5 µM (inactive) | 13.8 µM (inactive) | 13.3 µM (inactive) | 18.2 µM (inactive) | 14.5 µM (inactive) | 16 µM (inactive) | 14.7 µM (inactive) | 14.8 µM (inactive) | 16.2 µM (inactive) | 13.4 µM (inactive) | 19.5 µM (inactive) | 13.2 µM (inactive) | 11.7 µM (inactive) | 16.7 µM (inactive) | 12.9 µM (inactive) | – | –
2 | CCOC(=O)C(NCc1ccccc1)(NC(=O)c1ccccc1)C(F)(F)F (stereo not given) | > 100 µM (inactive) | > 100 µM (inactive) | > 100 µM (inactive) | 29 µM (inactive) | 60.1 µM (inactive) | 81.5 µM (inactive) | > 100 µM (inactive) | > 100 µM (inactive) | > 100 µM (inactive) | – | 43.3 µM (inactive) | 89.7 µM (inactive) | > 100 µM (inactive) | > 100 µM (inactive) | > 100 µM (inactive) | 84.9 µM (inactive) | > 100 µM (inactive) | 46.6 µM (inactive) | 42.3 µM (inactive) | 45.3 µM (inactive)
3 | Clc1ccccc1NN(Cc1ccncc1)c1ccccc1Cl | 13.7 µM (inactive) | 16.6 µM (inactive) | 19.1 µM (inactive) | 17 µM (inactive) | 10.4 µM (inactive) | 18 µM (inactive) | 22.3 µM (inactive) | 15.2 µM (inactive) | 13.5 µM (inactive) | – | 13.8 µM (inactive) | 13.5 µM (inactive) | 17.5 µM (inactive) | 16.7 µM (inactive) | 20.3 µM (inactive) | 13.9 µM (inactive) | 13.6 µM (inactive) | 24.5 µM (inactive) | 4.6 µM (inactive) | 11.1 µM (inactive)
4 | CCc1n[nH]c(=O)n1NC(=O)CCCC(=O)O | > 100 µM (inactive) | > 100 µM (inactive) | > 100 µM (inactive) | – | > 100 µM (inactive) | > 100 µM (inactive) | > 100 µM (inactive) | > 100 µM (inactive) | > 100 µM (inactive) | > 100 µM (inactive) | > 100 µM (inactive) | > 100 µM (inactive) | > 100 µM (inactive) | > 100 µM (inactive) | – | > 100 µM (inactive) | > 100 µM (inactive) | > 100 µM (inactive) | > 100 µM (inactive) | > 100 µM (inactive)
5 | COc1ccc2nc3cccc([N+](=O)[O-])c3c(NCCN(C)C)c2c1 | 0.0902 µM (active) | 0.0585 µM (active) | 0.0369 µM (active) | – | 0.0292 µM (active) | 0.158 µM (active) | 0.0555 µM (active) | 0.0826 µM (active) | 0.124 µM (active) | 0.0165 µM (active) | 0.138 µM (active) | 0.127 µM (active) | 0.173 µM (active) | 0.233 µM (active) | 0.161 µM (active) | 0.102 µM (active) | 0.11 µM (active) | 0.176 µM (active) | 0.057 µM (active) | 0.116 µM (active)
6 | O=C(/C=C/c1ccsc1)c1cccs1 | 49.3 µM (inactive) | 52.1 µM (inactive) | 20.8 µM (inactive) | – | 28.2 µM (inactive) | 19.4 µM (inactive) | 17 µM (inactive) | > 10 µM (inactive) | 35 µM (inactive) | 41.7 µM (inactive) | 20.7 µM (inactive) | 22.1 µM (inactive) | 44.1 µM (inactive) | 64.7 µM (inactive) | 20.9 µM (inactive) | 14.6 µM (inactive) | 19.5 µM (inactive) | 18.5 µM (inactive) | 29.4 µM (inactive) | 44.8 µM (inactive)
7 | Cc1ccc(S(=O)(=O)Oc2ccc(OS(=O)(=O)c3ccc(C)cc3)c3c2C(=O)c2ccccc2C3=O)cc1 | 50.7 µM (inactive) | > 100 µM (inactive) | > 100 µM (inactive) | > 100 µM (inactive) | > 100 µM (inactive) | > 100 µM (inactive) | > 100 µM (inactive) | > 100 µM (inactive) | > 100 µM (inactive) | > 100 µM (inactive) | > 100 µM (inactive) | > 100 µM (inactive) | > 100 µM (inactive) | – | > 100 µM (inactive) | > 100 µM (inactive) | > 100 µM (inactive) | 33.8 µM (inactive) | > 100 µM (inactive) | > 100 µM (inactive)
8 | COc1ccccc1[S+]([O-])Nc1ccccc1 (stereo not given) | > 100 µM (inactive) | 87.7 µM (inactive) | 17.4 µM (inactive) | 82.8 µM (inactive) | 25.4 µM (inactive) | 12.5 µM (inactive) | > 100 µM (inactive) | 31 µM (inactive) | > 100 µM (inactive) | 88.1 µM (inactive) | 91.4 µM (inactive) | > 100 µM (inactive) | > 100 µM (inactive) | > 100 µM (inactive) | > 100 µM (inactive) | 25.5 µM (inactive) | > 100 µM (inactive) | 33.6 µM (inactive) | – | > 100 µM (inactive)
9 | COc1cc(Br)cc2c1O[C@H]1C(=O)CC3CC21CCN3C (stereo not given in full) | 51.6 µM (inactive) | 57.1 µM (inactive) | 48.4 µM (inactive) | 16.4 µM (inactive) | 19.8 µM (inactive) | 72.3 µM (inactive) | 34.1 µM (inactive) | 52.2 µM (inactive) | 66.2 µM (inactive) | – | 67.5 µM (inactive) | > 100 µM (inactive) | > 100 µM (inactive) | > 100 µM (inactive) | > 100 µM (inactive) | > 100 µM (inactive) | – | 34.9 µM (inactive) | – | –
10 | CC(=O)CCn1c(=S)sc2ccccc21 | > 100 µM (inactive) | > 100 µM (inactive) | > 100 µM (inactive) | 17.5 µM (inactive) | – | > 100 µM (inactive) | > 100 µM (inactive) | > 100 µM (inactive) | > 100 µM (inactive) | > 100 µM (inactive) | > 100 µM (inactive) | > 100 µM (inactive) | > 100 µM (inactive) | > 100 µM (inactive) | > 100 µM (inactive) | 56.8 µM (inactive) | > 100 µM (inactive) | 41.3 µM (inactive) | > 100 µM (inactive) | > 100 µM (inactive)
11 | CC1CCC2(C(=O)O)CCC3(C)C(=CCC4C5(C)CCC(O)C(C)(C)C5CCC43C)C2C1C (stereo not given) | 4.63 µM (inactive) | – | 19 µM (inactive) | 3.05 µM (inactive) and 2.64 µM (inactive) | 3.84 µM (inactive) | 6.62 µM (inactive) and 9.29 µM (inactive) | 12.7 µM (inactive) and 22 µM (inactive) | 30.1 µM (inactive) | 14.6 µM (inactive) | 12.4 µM (inactive) | 14.7 µM (inactive) and 11.2 µM (inactive) | 7.52 µM (inactive) and 13.8 µM (inactive) | 11.1 µM (inactive) and 10.6 µM (inactive) | 3.3 µM (inactive) and 3.22 µM (inactive) | – | – | 10.3 µM (inactive) and 18 µM (inactive) | 6.75 µM (inactive) and 4.07 µM (inactive) | 18.4 µM (inactive) and 11.9 µM (inactive) | 17.3 µM (inactive) and 13.3 µM (inactive)
12 | CCOC(=O)NC(=S)c1ccc(O)c2ccccc12 | > 100 µM (inactive) | 80.5 µM (inactive) | 23 µM (inactive) | 1.47 µM (inactive) | 42.1 µM (inactive) | 39 µM (inactive) | 72.1 µM (inactive) | 40.7 µM (inactive) | 26.4 µM (inactive) | 38.8 µM (inactive) | 25.8 µM (inactive) | 49.8 µM (inactive) | > 100 µM (inactive) | 46.3 µM (inactive) | 32.4 µM (inactive) | 42.8 µM (inactive) | – | 45.6 µM (inactive) | – | > 100 µM (inactive)
13 | O=c1[nH]nc(Cc2ccccc2)n1-n1cnnc1 | > 100 µM (inactive) | > 100 µM (inactive) | > 100 µM (inactive) | – | > 100 µM (inactive) | > 100 µM (inactive) | > 100 µM (inactive) | > 100 µM (inactive) | > 100 µM (inactive) | – | > 100 µM (inactive) | > 100 µM (inactive) | > 100 µM (inactive) | > 100 µM (inactive) | > 100 µM (inactive) | > 100 µM (inactive) | > 100 µM (inactive) | > 100 µM (inactive) | > 100 µM (inactive) | > 100 µM (inactive)
14 | CSc1ccc(C2C(Cl)C(=O)N2NC(=O)c2c(Cl)c(Cl)c(Cl)c(Cl)c2-c2nc3ccccc3[nH]2)cc1 (stereo not given) | 18.4 µM (inactive) | 24.2 µM (inactive) | 17.2 µM (inactive) | 19.1 µM (inactive) | 18.1 µM (inactive) | 16.8 µM (inactive) | 19.3 µM (inactive) | 13.3 µM (inactive) | 21.5 µM (inactive) | – | 29.9 µM (inactive) | 21.8 µM (inactive) | 22.3 µM (inactive) | 33.1 µM (inactive) | 17.2 µM (inactive) | 17.1 µM (inactive) | 15.8 µM (inactive) | 3.93 µM (inactive) | 11.5 µM (inactive) | –
15 | CC1(C)CC(=O)C(=CNC(N)=S)C(=O)C1 | > 100 µM (inactive) | > 100 µM (inactive) | > 100 µM (inactive) | > 100 µM (inactive) | – | > 100 µM (inactive) | > 100 µM (inactive) | > 100 µM (inactive) | > 100 µM (inactive) | > 100 µM (inactive) | > 100 µM (inactive) | > 100 µM (inactive) | > 100 µM (inactive) | > 100 µM (inactive) | > 100 µM (inactive) | > 100 µM (inactive) | > 100 µM (inactive) | > 100 µM (inactive) | > 100 µM (inactive) | > 100 µM (inactive)
